From patent US20030119013A1, “Identification of essential genes of Aspergillus fumigatus and methods of use” (priority 2001, published 2003)

How the values were obtained:
[1] = system: Aspergillus fumigatus transformed cells containing the integrated PglaA promoter (AfHIS3); assay: Titration against 3-aminotriazole of PglaA-AfHIS3 promoter replacement strain; format: cell-based
From the text: Aspergillus fumigatus is sensitive to the catalase inhibitor 3-aminotriazole (3-AT), which targets the product of the HIS3 gene. The concentration of 3-AT sufficient to inhibit growth of Aspergillus fumigatus is thusly dependent on the amount of HIS3 gene product present in the cells.
For instance, culturing the transformed cells containing the integrated PglaA promoter in a medium supplemented with different carbon sources or ratios of carbon sources allows the amount of AfHIS3 gene product to be increased or decreased relative to endogenous levels to generate cells that are more or less sensitive to 3-AT based on the amount of HIS3 gene product. It is known, for example, that transcription from the PglaA promoter is induced in the presence of maltose, repressed in the presence of xylose and intermediate levels of activity are detected from cells grown on glucose. By adjusting the ratio of maltose to xylose in the culture medium, the amount of transcription may be titrated, at least in a step-wise manner, to adjust levels of transcript in the cell.

[2] = system: bar-coded strains bearing heterozygous mutations in HIS3, TUB1, ALG7, and ERG11; conditions: Saccharomyces cerevisiae, mixed population, challenged with respective compound; cited from earlier work
[3] = system: invasive aspergillosis (IA); conditions: patients with invasive aspergillosis; cited from earlier work
[4] = system: wild-type Aspergillus fumigatus strain CEA 10; assay: Azole sensitivity on agar gradient plates, wild-type strain; format: cell-based; conditions: versus AfERG11 and AfERG11β knockout strains
From the text: (§1) Aspergillus fumigatus strains were constructed in which either the AfERG11 gene or the AfERG11β gene had been “knocked out.” Each of these strains was compared to the wild-type Aspergillus fumigatus strain CEA 10 with respect to its sensitivity, as analyzed on agar gradient plates, to two representative azole compounds, ketoconazole and itraconazole.

[5] = system: AfERG11β knockout strain and AfERG11α knockout strain; assay: Azole sensitivity on agar gradient plates, knockout strains; format: cell-based, Aspergillus fumigatus
From the text: as §1

In the case of Nc1nc[nH]n1 [3-AT, 3-aminotriazole], the “sensitivity of Aspergillus fumigatus to 3-aminotriazole” value ([1]; Aspergillus fumigatus, general statement) is reported as “sensitive”, the “resistance in the presence of 3-AT” value ([1]; cells grown in the presence of maltose (e.g. 2% maltose), PglaA induced) is reported as “increased resistance” and the “resistance to 3-AT” value ([1]; cells grown in the presence of xylose (e.g. 1% xylose), PglaA repressed) is reported as “decreased resistance”. For the same compound, the “sensitivity of heterozygous drug-target strain compared with other heterozygote bar-coded strains” value [2] was “significantly greater sensitivity”.

In the case of C[C@@H]1[C@H](O)[C@@H](C)/C=C/C=C/C=C/C=C/C=C/C=C/C=C/[C@H](O[C@@H]2O[C@H](C)[C@@H](O)[C@H](N)[C@@H]2O)C[C@@H]2O[C@](O)(C[C@@H](O)C[C@@H](O)[C@H](O)CC[C@@H](O)C[C@@H](O)CC(=O)O[C@H]1C)C[C@H](O)[C@H]2C(=O)O [AmB, amphotericin B], the “overall success rate of therapy for IA” value [3] is given as 34%.

For OC(Cn1cncn1)(Cn1cncn1)c1ccc(F)cc1F [fluconazole], the “sensitivity of heterozygous drug-target strain compared with other heterozygote bar-coded strains” value [2] is listed as “significantly greater sensitivity”.

For tunicamycin, the “sensitivity of heterozygous drug-target strain compared with other heterozygote bar-coded strains” value [2] is given as “significantly greater sensitivity”.

In the case of CCCCNC(=O)n1c(NC(=O)OC)nc2ccccc21 [benomyl], the “sensitivity of heterozygous drug-target strain compared with other heterozygote bar-coded strains” value [2] is listed as “significantly greater sensitivity”.

In the case of CC(=O)N1CCN(c2ccc(OCC3COC(Cn4ccnc4)(c4ccc(Cl)cc4Cl)O3)cc2)CC1 (stereo not shown) [ketoconazole], the “resistance of wild-type strain CEA 10 compared with either knockout strain” value [4] is reported as “more resistant” and the “resistance of AfERG11β knockout strain compared with AfERG11α knockout strain” value [5] is reported as “more resistant”.
